Measured values published in PubChem BioAssay (NCI).
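Abbreviation: GI50, concentration required for 50% inhibition of growth. TGI: concentration producing complete growth inhibition.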

Columns and labels:
Assay in all cases: DTP human tumour cell line panel, 384-well format
786-0 renal = system: 786-0 renal
A498 renal = system: A498 renal
A549 NSCLC = system: A549 NSCLC
ACHN renal = system: ACHN renal
BT-549 breast = system: BT-549 breast
CAKI-1 renal = system: CAKI-1 renal
CCRF-CEM leukemia = system: CCRF-CEM leukemia
COLO 205 colon = system: COLO 205 colon
DU-145 prostate = system: DU-145 prostate
EKVX NSCLC = system: EKVX NSCLC
HCC-2998 colon = system: HCC-2998 colon
HCT-15 colon = system: HCT-15 colon
HL-60(TB) leukemia = system: HL-60(TB) leukemia
HOP-62 NSCLC = system: HOP-62 NSCLC
HOP-92 NSCLC = system: HOP-92 NSCLC
HS 578T breast = system: HS 578T breast
HT29 colon = system: HT29 colon
IGROV1 ovarian = system: IGROV1 ovarian
KM12 colon = system: KM12 colon
M14 melanoma = system: M14 melanoma
MALME-3M melanoma = system: MALME-3M melanoma
MCF7 breast = system: MCF7 breast
MDA-MB-231 breast = system: MDA-MB-231 breast
MDA-MB-435 melanoma = system: MDA-MB-435 melanoma
MDA-MB-468 breast = system: MDA-MB-468 breast
MOLT-4 leukemia = system: MOLT-4 leukemia
NCI-H226 lung = system: NCI-H226 lung
NCI-H23 lung = system: NCI-H23 lung
NCI-H322M lung = system: NCI-H322M lung
NCI-H460 NSCLC = system: NCI-H460 NSCLC
NCI-H522 lung = system: NCI-H522 lung
NCI/ADR-RES ovarian = system: NCI/ADR-RES ovarian
OVCAR-3 ovarian = system: OVCAR-3 ovarian
OVCAR-4 ovarian = system: OVCAR-4 ovarian
OVCAR-5 ovarian = system: OVCAR-5 ovarian
OVCAR-8 ovarian = system: OVCAR-8 ovarian
PC-3 prostate = system: PC-3 prostate
RPMI-8226 leukemia = system: RPMI-8226 leukemia
RXF 393 renal = system: RXF 393 renal
SF-268 CNS = system: SF-268 CNS
SF-295 CNS = system: SF-295 CNS
SF-539 CNS = system: SF-539 CNS
SK-MEL-2 melanoma = system: SK-MEL-2 melanoma
SK-MEL-28 melanoma = system: SK-MEL-28 melanoma
SK-MEL-5 melanoma = system: SK-MEL-5 melanoma
SK-OV-3 ovarian = system: SK-OV-3 ovarian
SN12C renal = system: SN12C renal
SNB-19 CNS = system: SNB-19 CNS
SNB-75 CNS = system: SNB-75 CNS
SR leukemia = system: SR leukemia
SW-620 colon = system: SW-620 colon
T-47D breast = system: T-47D breast
TK-10 renal = system: TK-10 renal
U251 glioblastoma = system: U251 glioblastoma
UACC-257 melanoma = system: UACC-257 melanoma
UACC-62 melanoma = system: UACC-62 melanoma

Q: What does the source list for `COCC1(CO)C(=O)C2CCN1CC2` (configuration not stated)?
A: GI50 (786-0 renal): 15.5 µM; TGI (786-0 renal): 28.9 µM; GI50 (A498 renal): 16.7 µM; TGI (A498 renal): 30.5 µM; GI50 (A549 NSCLC): 18.2 µM; TGI (A549 NSCLC): 32.4 µM; GI50 (ACHN renal): 20.3 µM; TGI (ACHN renal): 34.6 µM; GI50 (BT-549 breast): 11.5 µM; TGI (BT-549 breast): 23.7 µM; GI50 (CAKI-1 renal): 17.1 µM; TGI (CAKI-1 renal): 30.9 µM; GI50 (CCRF-CEM leukemia): 1760 nM; TGI (CCRF-CEM leukemia): 3.33 µM; GI50 (COLO 205 colon): 18.1 µM; TGI (COLO 205 colon): 32.1 µM; GI50 (DU-145 prostate): 17.9 µM; TGI (DU-145 prostate): 32 µM; GI50 (EKVX NSCLC): 16.9 µM; TGI (EKVX NSCLC): 30.6 µM; GI50 (HCC-2998 colon): 17.2 µM; TGI (HCC-2998 colon): 31 µM; GI50 (HCT-15 colon): 4.34 µM; TGI (HCT-15 colon): 13.9 µM; GI50 (HL-60(TB) leukemia): 13 µM; TGI (HL-60(TB) leukemia): 25.9 µM; GI50 (HOP-62 NSCLC): 1860 nM; TGI (HOP-62 NSCLC): 3.49 µM; GI50 (HOP-92 NSCLC): 10.9 µM; TGI (HOP-92 NSCLC): 22.9 µM; GI50 (HS 578T breast): 13.1 µM; TGI (HS 578T breast): 25.9 µM; GI50 (HT29 colon): 19 µM; TGI (HT29 colon): 33.2 µM; GI50 (IGROV1 ovarian): 17.2 µM; TGI (IGROV1 ovarian): 31.1 µM; GI50 (KM12 colon): 17.9 µM; TGI (KM12 colon): 32 µM; GI50 (M14 melanoma): 17.8 µM; TGI (M14 melanoma): 31.8 µM; GI50 (MALME-3M melanoma): 17.5 µM; TGI (MALME-3M melanoma): 31.3 µM; GI50 (MCF7 breast): 3.68 µM; TGI (MCF7 breast): 12.4 µM; GI50 (MDA-MB-231 breast): 17.7 µM; TGI (MDA-MB-231 breast): 31.7 µM; GI50 (MDA-MB-435 melanoma): 16.9 µM; TGI (MDA-MB-435 melanoma): 30.7 µM; GI50 (MDA-MB-468 breast): 3.28 µM; TGI (MDA-MB-468 breast): 7.2 µM; GI50 (MOLT-4 leukemia): 2270 nM; TGI (MOLT-4 leukemia): 6.55 µM; GI50 (NCI-H226 lung): 21.9 µM; TGI (NCI-H226 lung): 36.4 µM; GI50 (NCI-H23 lung): 11.8 µM; TGI (NCI-H23 lung): 24.2 µM; GI50 (NCI-H322M lung): 19.7 µM; TGI (NCI-H322M lung): 35.2 µM; GI50 (NCI-H460 NSCLC): 17.4 µM; TGI (NCI-H460 NSCLC): 31.6 µM; GI50 (NCI-H522 lung): 1830 nM; TGI (NCI-H522 lung): 3.24 µM; GI50 (NCI/ADR-RES ovarian): 16.2 µM; TGI (NCI/ADR-RES ovarian): 29.9 µM; GI50 (OVCAR-3 ovarian): 14.6 µM; TGI (OVCAR-3 ovarian): 27.9 µM; GI50 (OVCAR-4 ovarian): 2600 nM; TGI (OVCAR-4 ovarian): 6.3 µM; GI50 (OVCAR-5 ovarian): 16.5 µM; TGI (OVCAR-5 ovarian): 30.2 µM; GI50 (OVCAR-8 ovarian): 19.8 µM; TGI (OVCAR-8 ovarian): 34.1 µM; GI50 (PC-3 prostate): 19.1 µM; TGI (PC-3 prostate): 33.3 µM; GI50 (RPMI-8226 leukemia): 10.5 µM; TGI (RPMI-8226 leukemia): 22.3 µM; GI50 (RXF 393 renal): 2000 nM; TGI (RXF 393 renal): 3.43 µM; GI50 (SF-268 CNS): 20 µM; TGI (SF-268 CNS): 34.2 µM; GI50 (SF-295 CNS): 17.5 µM; TGI (SF-295 CNS): 31.6 µM; GI50 (SF-539 CNS): 17.5 µM; TGI (SF-539 CNS): 31.3 µM; GI50 (SK-MEL-2 melanoma): 2620 nM; TGI (SK-MEL-2 melanoma): 5.41 µM; GI50 (SK-MEL-28 melanoma): 20.6 µM; TGI (SK-MEL-28 melanoma): 35 µM; GI50 (SK-MEL-5 melanoma): 15.5 µM; TGI (SK-MEL-5 melanoma): 29 µM; GI50 (SK-OV-3 ovarian): 19.3 µM; TGI (SK-OV-3 ovarian): 33.4 µM; GI50 (SN12C renal): 15.3 µM; TGI (SN12C renal): 28.8 µM; GI50 (SNB-19 CNS): 17.5 µM; TGI (SNB-19 CNS): 31.5 µM; GI50 (SNB-75 CNS): 1790 nM; TGI (SNB-75 CNS): 3.73 µM; GI50 (SR leukemia): 14.6 µM; TGI (SR leukemia): 27.8 µM; GI50 (SW-620 colon): 14.2 µM; TGI (SW-620 colon): 27.4 µM; GI50 (T-47D breast): 1580 nM; TGI (T-47D breast): 2940 nM; GI50 (TK-10 renal): 17 µM; TGI (TK-10 renal): 30.7 µM; GI50 (U251 glioblastoma): 18.7 µM; TGI (U251 glioblastoma): 32.8 µM; GI50 (UACC-257 melanoma): 13.9 µM; TGI (UACC-257 melanoma): 27 µM; GI50 (UACC-62 melanoma): 18.2 µM; TGI (UACC-62 melanoma): 32.2 µM
